Results: patent publication US5928933A, “Process for the enzymatic resolution of N-(alkoxycarbonyl)-4-ketoproline alkyl esters or N-(alkoxycarbonyl)-4-hydroxyproline alkyl esters using Candida antarctica lipase B” (priority 1998, dated 1999)
Read-outs that look alike come from different tables or passages of the source.

Assays:
Assay type in all cases: biochemical
[1] = target: T1, Candida antartica lipase fraction B (CALB) (Moesziomyces antarcticus, UniProt P41365); conditions: for resolution with high enantioselectivity: CALB or any of the other commercially-available esterases, lipases, and proteases screened (Examples 7, 8); for isomer remaining: candida antartica lipase b, 19000 µM, pH 5
T1 construct: purchased Boehringer Mannheim CHIRAZYME L-2
T1 sequence (P41365 26-342): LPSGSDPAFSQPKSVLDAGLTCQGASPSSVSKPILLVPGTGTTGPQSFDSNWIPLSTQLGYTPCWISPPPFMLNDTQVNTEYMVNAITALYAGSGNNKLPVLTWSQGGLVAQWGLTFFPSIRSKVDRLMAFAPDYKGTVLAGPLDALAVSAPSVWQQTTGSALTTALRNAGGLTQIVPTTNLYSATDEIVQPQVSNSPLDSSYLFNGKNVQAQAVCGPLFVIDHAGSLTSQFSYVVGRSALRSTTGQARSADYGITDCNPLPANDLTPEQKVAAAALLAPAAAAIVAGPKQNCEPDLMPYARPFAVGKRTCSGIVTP
Protocol: Reacting a 0.10M solution of the 1:1 mixture of KDP(MEMC) and KLP(MEMC) in 0.20M succinate (pH 6.0) at 25° C. for 5 h with approximately 1-3 mg/mL of Candida antartica lipase fraction B (CALB) produced a 95% ee (substrate) of KDP(MEMC) at 51% conversion. […] The calculated enantioselectivity (E) at 51% conversion was E=81.
The enzymatic hydrolysis reaction of KDP(MEMC) and KLP(MEMC) using CALB (described above) was repeated at pH 5.0 in 0.20M acetate buffer (Example 2), and a 100% ee (substrate) of the D-isomer was obtained at 51% conversion (E=>1000); the reaction rate was approximately 50% of the rate at pH 6.0, and the slight loss of the D-isomer at pH 5.0 was again observed in the absence of added enzyme (95% recovery at pH 5.0 after 24 h with no enzyme).
The procedure described in Example I was repeated using Candida antartica lipase fraction B (CALB), except that the reaction was run in 0.200M sodium cetate (pH 5.0) instead of the 0.20M sodium succinate buffer (pH 6.0) used for Candida antartica lipase fraction B in Example 1. Aqueous solutions (5.0 mL) containing varying concentrations of a racemic mixture of N-(methoxycarbonyl)-4-keto-D,L-proline methyl ester and CALB were mixed at 15° C., 25° C., 35° C. or 45° C.
An aqueous solution (5.0 mL) containing 25 mM N-(methoxycarbonyl)-4-keto-Dproline methyl ester and 25 mM N-(methoxycarbonyl)-4-keto-L-proline methyl ester in 0.200M sodium acetate (pH 5.0) was mixed with 2.5 g of immobilized Candida antartica lipase fraction B (Boehringer Mannheim, CHIRAZYME® L-2, c.-f., C2, lyo.) at 25° C. […] The dichloromethane extract was then analyzed by chiral gas chromatography on a Chiraldex G-TA column (Advanced Separation Technologies, Inc., 50 m×0.32 mm ID) to determine the amounts of the unreacted D- and L-isomers. After 31 h, an 85% enantiomeric excess of N-(methoxycarbonyl)-4-keto-D-proline methyl ester was obtained at 41% conversion of the racemic mixture.
A 200 mL aqueous solution containing 0.200M sodium acetate (pH 5.0), 1.3325 g of Candida antartica lipase fraction B, and 4.02 g of racemic N-(methoxycarbonyl)-4-keto-D,L-proline methyl ester (100 mM) was stirred at 25° C. After 24 h, an 96% enantiomeric excess of N-(methoxycarbonyl)-4-keto-D-proline methyl ester was obtained at 50% conversion of the racemic mixture. The reaction mixture was filtered using a 10,000 MWCO membrane filter (Amicon) to remove the enzyme catalyst, and the filtrate extracted with three 200 mL portions of dichloromethane. The combined organic extracts were dried over magnesium sulfate, filtered, and the dichloromethane removed from the filtrate by rotary evaporation at reduced pressure. Residual dichloromethane was removed from the resulting colorless oil at high vacuum (50 millitorr) to produce N-(methoxycarbonyl)-4-keto-D-proline methyl ester as a white solid (1.99 g, 99% isolated yield, 99% purity (by GC), 97% ee).
An aqueous solution (2.0 mL) containing 50 mM N-(ethoxycarbonyl)-4-keto-D-proline ethyl ester and 50 mM N-(ethoxycarbonyl)-4-keto-L-proline ethyl ester in 0.200M sodium acetate (pH 5.0) and 30 mg/mL of Candida antartica lipase fraction B was mixed at 25° C. […] The dichloromethane extract was then analyzed by chiral gas chromatography on a Chiraldex G-TA column (Advanced Separation Technologies, Inc., 50 m×0.32 mm ID) to determine the amounts of the unreacted D- and L-isomers. After 24 h, a 100% enantiomeric excess of N-(ethoxycarbonyl)-4-keto-D-proline ethyl ester was obtained at 51% conversion of the racemic mixture.
An aqueous solution (1.0 mL) containing 19 mM of N-(2-phenylacetyl)-4-keto-D-proline methyl ester and 19 mM of N-(2-phenylacetyl)-4-keto-L-proline methyl ester in 0.200M sodium acetate (pH 5.0) and 25 mg/mL of Candida antartica lipase fraction B was mixed at 25° C. […]

[2] = Enzyme screens for resolution of racemic N-(methoxycarbonyl)-4-keto-D,L-proline methyl ester (Example 1); conditions: 0.100M racemate, 5.0 to 50 mg/mL enzyme, 25° C., optimum
Protocol: An aqueous solution (1.0 mL) containing 0.100M racemic N-(methoxycarbonyl)-4-keto-D,L-proline methyl ester in either 0.20M sodium succinate (pH 6.0) or 0.20M sodium acetate (pH 5.0) was mixed with 5.0 to 50 mg/mL of commercial enzyme preparations (listed in the table below) at 25° C. […] The dichloromethane extract was then analyzed by chiral gas chromatography on a Chiraldex G-TA column (Advanced Separation Technologies, Inc., 50 m×0.32 mm ID) to determine the percent conversion of the racemate, and the enantiomeric excess of the N-(methoxycarbonyl)-4-keto-D-proline methyl ester.

[3] = Enzyme screens for resolution of diastereomeric mixture CHLP(MEMC)/THLP(MEMC) (Example 13); conditions: 0.050M each isomer, 5 h, 5.0 to 50 mg/mL enzyme, 25° C.
Protocol: (§1) An aqueous solution containing 0.050M N-(methoxycarbonyl)-trans-4-hydroxy-L-proline methyl ester and 0.050M N-(methoxycarbonyl)-cis-4-hydroxy-L-proline methyl ester in 0.100M potassium phosphate (pH 7.0) was mixed with 5.0 to 50 mg/mL of commercial enzyme preparations (listed in the table below) at 25° C. The reactions were analyzed after 5 h by removal of a 0.200 mL sample and mixing with an equivalent volume of 0.100M propionic acid (HPLC internal standard) in water. The resulting solution was filtered through a 10K molecular weight cut-off filter to remove the enzyme and the filtrate analyzed by high pressure liquid chromatography on a HPX-87H column (Bio-Rad, 30 cm×7.8 mm) to determine the percent conversion of the diastereomeric mixture, and the diastereomeric excess of the N-(methoxycarbonyl)-cis-4-hydroxy-L-proline methyl ester.

[4] = Enzyme screens for resolution of diastereomeric mixture CHDP(MEMC)/THLP(MEMC) (Example 9); conditions: 0.050M each isomer, 5 h or 24 h, 5.0 to 50 mg/mL enzyme, 25° C.
Protocol: as §1, with “aqueous solution (1.0 mL) containing 0.050M” for “aqueous solution containing 0.050M”, “and 0.050M N-(methoxycarbonyl)-cis-4-hydroxy-D-proline methyl ester” for “and 0.050M N-(methoxycarbonyl)-cis-4-hydroxy-L-proline methyl ester”, “after 5 h or 24 h by” for “after 5 h by”, “conversion of each isomer of the diastereomeric” for “conversion of the diastereomeric”, “of the N-(methoxycarbonyl)-cis-4-hydroxy-D-proline methyl ester.” for “of the N-(methoxycarbonyl)-cis-4-hydroxy-L-proline methyl ester.”

[5] = 0.10M 1:1 mixture, 0.20M succinate pH 6.0, 25° C., 5 h, approximately 1-3 mg/mL CALB
[6] = 100 mM racemate, 10 mg/mL CALB, 25° C., 24 h, pH 5.0
[7] = 100 mM racemate, 20 mg/mL CALB, 45° C., 6 h, pH 5.0
[8] = 200 mM racemate, 6.7 mg/mL CALB, 35° C., 29 h, pH 5.0
[9] = 300 mM racemate, 31 mg/mL CALB, 45° C., 23 h, pH 5.0
[10] = 200 mL, 100 mM racemate, 1.3325 g CALB, pH 5.0, 25° C., 24 h
[11] = immobilized CALB 2.5 g in 5.0 mL, 25 mM each isomer, pH 5.0, 25° C., 31 h
[12] = 19 mM each isomer, 25 mg/mL CALB, pH 5.0, 25° C., 28 h
[13] = 50 mM each isomer, 30 mg/mL CALB, pH 5.0, 25° C., 24 h
[14] = 0.100M potassium phosphate pH 7.0

In the case of COC(=O)C1CC(=O)CN1C(C)=O (racemic) [N-(acetyl)-4-keto-D,L-proline methyl ester], the “resolution with high enantioselectivity” value [1] is reported as “could not be resolved with high enantioselectivity”.

In the case of COC(=O)C1CC(=O)CN1C(=O)OC (racemic) [N-(methoxycarbonyl)-4-keto-D,L-proline methyl ester], the conversion [1, 5] is reported as 51%, the “ee (substrate) of KDP(MEMC)” value [1, 5] is reported as 95% and the “ee D-isomer” value [1, 6] is reported as 100%. For the same molecule, the racemate conv. [1, 6] was 51%, the “ee D-isomer” value ([1]; 100 mM racemate, 20 mg/mL CALB, 15° C., 24 h, pH 5.0) was 100% and the racemate conv. ([1]; 100 mM racemate, 20 mg/mL CALB, 15° C., 24 h, sodium acetate pH 5.0) was 51%. For the same molecule, the “ee D-isomer” value [1, 7] was 100%, the racemate conv. [1, 7] was 50% and the conversion ([1]; 0.20M acetate buffer pH 5.0) was 51%. The “ee (substrate) of the D-isomer” value ([1]; 0.20M acetate buffer pH 5.0) was 100%, the “ee D-isomer” value [1, 8] was 97% and the racemate conv. [1, 8] was 51%. For the same molecule, the “ee D-isomer” value [1, 9] was 99%, the racemate conv. [1, 9] was 48% and the “conversion of the racemic mixture” value [1, 10] was 50%. The “enantiomeric excess of the D-isomer” value [1, 10] was 96%, the “enantioselectivity (E)” value ([1]; at 51% conversion, pH 5.0) was over 1000 and the “calculated enantioselectivity (E)” value ([1]; at 51% conversion, pH 6.0) was 81. For the same molecule, the “conversion of the racemic mixture” value [1, 11] was 41%, the “enantiomeric excess of the D-isomer” value [1, 11] was 85% and the “reaction rate relative to the rate at pH 6.0” value ([1]; pH 5.0) was “approximately 50%”.

COC(=O)[C@@H]1CC(=O)CN1C(=O)Cc1ccccc1 [N-(2-phenylacetyl)-4-keto-L-proline methyl ester] gave an isomer remaining ([1]; 28 h) of 28%.

In the case of COC(=O)[C@H]1CC(=O)CN1C(=O)Cc1ccccc1 [N-(2-phenylacetyl)-4-keto-D-proline methyl ester], the isomer remaining ([1]; 28 h) is reported as 97%.

In the case of COC(=O)C1CC(=O)CN1C(=O)Cc1ccccc1 (racemic) [N-(2-phenylacetyl)-4-keto-D,L-proline methyl ester], the “conversion of the racemic mixture” value [1, 12] is reported as 38% and the “enantiomeric excess of the D-isomer” value [1, 12] is reported as 55%.

For CCOC(=O)C1CC(=O)CN1C(=O)OCC (racemic) [N-(ethoxycarbonyl)-4-keto-D,L-proline ethyl ester], the “conversion of the racemic mixture” value [1, 13] was 51% and the “enantiomeric excess of the D-isomer (KDP(EEEC))” value [1, 13] was 100%.

In the case of COC(=O)C1CC(OC)(OC)CN1C(=O)OC (racemic) [N-(methoxycarbonyl)-4,4-dimethoxy-D,L-proline methyl ester], the “resolution with high enantioselectivity” value [1] is reported as “could not be resolved with high enantioselectivity”.

B1: protease, type VIII: commercial enzyme preparation, source Bacillus licheniformis (protein, UniProt P00780 106-379, looked up)
Subtilisin Carlsberg: AQTVPYGIPLIKADKVQAQGFKGANVKVAVLDTGIQASHPDLNVVGGASFVAGEAYNTDGNGHGTHVAGTVAALDNTTGVLGVAPSVSLYAVKVLNSSGSGSYSGIVSGIEWATTNGMDVINMSLGGASGSTAMKQAVDNAYAKGVVVVAAAGNSGSSGNTNTIGYPAKYDSVIAVGAVDSNSNRASFSSVGAELEVMAPGAGVYSTYPTNTYATLNGTSMASPHVAGAAALILSKHPNLSASQVRNRLSSTATYLGSSFYYGKGLINVEAAAQ
With B1 the “conv. (percent conversion of the racemate)” value ([2]; 0.20M sodium succinate pH 6.0, 5 h or 0.20M sodium acetate pH 5.0, 24 h) was 32%, the “% ee (enantiomeric excess of the D-isomer; L-isomer with porcine liver esterase)” value ([2]; pH 6.0, 5 h or pH 5.0, 24 h) was 23% and the “conv. (percent conversion of the diastereomeric mixture)” value [3, 14] was 4%. For the same molecule, the “% de (diastereomeric excess of the cis-L-isomer)” value ([3]; pH 7.0) was 6%, the “conv. (percent conversion of the diastereomeric mixture)” value [4, 14] was 16% and the “% de (diastereomeric excess of the D-isomer, CHDP(MEMC))” value ([4]; pH 7.0) was 16%.
